Patent US12677825B2, “Composition for protecting islet transplantation” (LG CHEM, LTD., priority 2020, dated 2026)

Columns and labels:
[1] = system: islets from hIAPP+/− FVB/N mice; experiment: Alamar blue viability of islets isolated with or without Compound 1; type: cell-based, mouse; conditions: 20 μM Compound 1 during islet isolation, vs non-treated group; FIG. 1A
Description: Mouse islets were isolated from 10- to 12-week-old hIAPP^+/− and C57BL/6 mice as described previously. Briefly, 0.8 mg/mL of collagenase P (Roche, Indianapolis, IN, USA) in Hank's buffered saline solution (HBSS, Sigma-Aldrich, St. Louis, MO, USA) with or without 20 μM Compound 1 were infused into the common bile duct for mouse pancreas digestion. Islets were purified from the digested pancreas using a Ficoll (Biochrom, Berlin, Germany) gradient and washed several times with 1 xHBSS. Isolated islets were cultured while free-floating in 10 mL of RPMI 1640 (Gibco, Grand Island, NY, USA). The medium was supplemented with 10% heat-inactivated FBS (fetal bovine serum) at 37° C. and 5% CO2 incubation prior to the ex vivo and in vivo studies.
The viability of islets was evaluated using Alamar blue staining according to the manufacturer's protocol (Invitrogen, Grand Island, NY, USA). Briefly, islets isolated from hIAPP^+/− mice were cultured at a density of 100 islet equivalents (IE) per well in 24-well plates with RPMI 1640 containing 10% FBS and 0.625% BSA with or without Compound 1. […] The fluorescence intensity of each well was measured at 570/585 nm (excitation/emission) using a GloMax-Multi Plus Detection System (Promega, Fitchburg, WI, USA), and the values were normalized to a blank.

[2] = system: STZ-induced diabetic hIAPP+/− FVB/N mice; experiment: Marginal mass islet transplantation after serum-deprived culture with or without Compound 1; type: in vivo, mouse
Description: A marginal mass renal subcapsular islet transplantation model was used to assess the in vivo islet function of hIAPP^+/− mice. To induce diabetes, 180 mg/kg of streptozotocin (STZ, Sigma-Aldrich) was administered to 8- to 10-week-old FVB/N mice. Mice were considered to have diabetes when two consecutive blood glucose level readings were higher than 300 mg/dL. Equal amounts (400 IEQ of islets per recipient) of islets isolated from hIAPP^+/− mice were allocated to the following two groups: culture medium supplemented with 0.625% BSA (BSA group) and 0.625% BSA plus Compound 1 (BSA+Compound 1 group) to evaluate the combined effect of Compound 1 on islet mass and function during ex vivo culture. After culture for 72 hours, islets were transplanted into the renal subscapular space of diabetic hIAPP^+/− mice. The IE number was calculated using the Ricordi algorithm by classifying islets according to their diameter. After islet transplantation, non-fasting blood glucose levels were measured three times a week for the first 2 weeks and twice a week for the last 2 weeks.
At 4 weeks after transplantation, the transplantation site on the kidney of mouse were removed and embedded in paraffin. Immunohistochemical staining is briefly explained in the following. After deparaffinization, 4-μm tissue sections were stained with the polyclonal guinea pig anti-insulin antibody (1:1000, A0546, DAKO, Denmark), glucacon (1:500, ab92517, abcam, United Kingdom) and amyloid (1:2500, #44-344, Invitrogen). Stained slides were observed using an Olympus BX40 light microscope (Olympus, Japan) with […] numeric aperture and ×40/0.75 numeric aperture objectives. Photographic images were collected with a digital camera (Olympus DP50) and analyzed using the Image-Pro Plus 5.1 software.
For quantification of the DAB-labeled β-cells, all slides were imaged at 10× on a Vectra 3.0 automated quantitative pathology imaging system and analyzed using inForm software (all from Perkin-Elmer, Waltham, MA, USA). The transplanted renal tissue sections were scanned for image acquisition and then to set the transplanted tissue segmentation, a number of representative regions of transplanted islet cells and regions to be excluded from the analysis such as renal tissues were examined by learn-by-example interface. For the β-cell segmentation, a spectral library was used to identify the hematoxylin-stained nuclei and the DAB-stained cytoplasm (β-cells) within the transplanted tissue. With these training sets, the algorithm for identifying only the DAB-stained cells in the transplanted tissue was verified. All the captured 10× images were analyzed, and the DAB-stained transplanted β-cells were counted.

**Q.** What does the source list for O=S1(=O)CCN(Cc2cc(NC3CCOCC3)c3[nH]c(-c4ccccc4)cc3c2)CC1 [Compound 1]?
**A.** relative ex vivo cell viability assessed by Alamar blue assay [1]: significantly increased; insulin positive area in the grafted tissue ([2]; islets cultured 72 hours with Compound 1, vs control group, FIG. 7F): greater; posttransplant glucose levels ([2]; islets cultured 72 hours with Compound 1, vs control, FIG. 7B): significantly better; diabetes reversal rate ([2]; islets cultured 72 hours with Compound 1, vs control, FIG. 7C): significantly better; glucose levels during IPGTT ([2]; islets cultured 72 hours with Compound 1, vs control, FIG. 7D): significantly better; AUC of glucose during IPGTT ([2]; islets cultured 72 hours with Compound 1, vs control, FIG. 7E): significantly better
